Entries after “also recorded” stand apart in the source; their conditions may differ. Some results are limits rather than exact numbers.

In one data set the test system is WT strain BY4741. The data set can be described thus: cisplatin/NSC combination treatments, fraction of colony forming cells. In kind it is cell-based, yeast. The settings on record: 2 hours at 30° C. in water. The protocol: This enhancement of cisplatin sensitivity by NSC109268 was quantified. We also tested the chemically related compound NSC 109272. Cells of a logarithmic-phase culture of WT strain BY4741 were incubated for 2 hours at 30° C. in water containing the combinations of NSC109268 or NSC109272 and cisplatin shown in Table 2. The fraction of colony forming cells was determined on solid YPD medium.

Data set [1] relates to cisplatin resistant ovarian cancer cells (2008/IC3). Kind of data set: MTS cell survival, cisplatin plus NSC109268. Type of data set: cell-based, human. The protocol:
(§1) Based on the cisplatin result in yeast, the inventors explored if a similar effect can be detected in human cells. […] Survival was determined in the presence or absence of compound NSC109268 using Cell Titer 96 Aqueous Cell Proliferation Assay kit from Promega, Madison, Wis. All cultures, unless specified otherwise, were maintained in growth medium composed of RPMI with 2 mM L-glutamine, 100 units/ml of Penicillin, and 100 μg/ml Streptomycin, supplemented with 10% fetal bovine serum under a humidified atmosphere of 95% air, 5% CO2 at 37° C. Briefly, cells were plated in 96-well tissue culture plates at 5-8×10^3 cells/well and allowed to attach overnight in growth medium. The following day, cells were rinsed twice in DMEM and further incubated in serum-free medium for 24 h. Cells were then treated with cisplatin [0-100 μM] in the presence of NSC109268 [0, 1, 2, 3 μM] for 48 h. Dose-response studies were initially done to determine appropriate dosages for the drugs and their vehicles. Negative controls involved the use of DMF, vehicle for cisplatin (˜0 μM) or DMSO, vehicle for NSC109268 (˜0 μM). […] MTS is taken up by live cells where it is reduced by the dehydrogenase enzymes and released back into the culture medium as a yellow formazan product. The amount of formazan product measured in terms of absorbances is directly proportional to the number of live cells in the cultures. Thus, absorbance readings at 490 nm were taken after 1 h and converted to cell numbers based on standard curves. Standard curves were done using cells maintained in RPMI in 96-well plates at the same time. Experiments were done in triplicate wells at least 4 times. Statistical analyses were done using ANOVA. […] Several series of studies were conducted using DMF (solvent control=0) and various concentrations of cisplatin in combination with (DMSO (solvent control=0), 1 μM NSC1092682 μM NSC109268, and 3 μM NSC109268. Survival was plotted in a logarithmic scale against cisplatin dose, with different symbols indicating the amount of added NSC109268 (see FIG. 1A insert), for the RWPE-1 normal prostate cell line (FIG. 1A), PC3 prostate cancer cells (FIG. 1B), cisplatin-sensitive ovarian cancer cells (2008) (FIG. 1C) and cisplatin-resistant ovarian cancer cells (2008/IC3) (FIG. 1D).

Data set [2] concerns checkpoint activation (DNA-damage-induced interaction between two selected checkpoint proteins). Kind of data set: two-hybrid assay-based yeast screen for agents that modify cell cycle checkpoint activation. To be noted: in response to the topoisomerase I inhibitor camptothecin. The protocol: A two-hybrid assay-based yeast system was used to screen small-molecule compound libraries for agents that modify cell cycle checkpoint activation. Checkpoint activation is measured as the DNA-damaged-induced increased interaction between two selected checkpoint proteins.

The test system of another data set is wild-type yeast. Kind of data set: sensitivity towards DNA damaging agents, survival of macrocolony forming cells, wild type. To be noted: strain WT. On the set-up: key: +: increased resistance; −: decreased resistance. In kind it is cell-based. The protocol: (§2) As another example, the drug streptonigrin was used as a double-strand break inducing drug. After treatment of logarithmically growing yeast cultures for 1 h at 30° C. in YPD medium (1% yeast extract, 2% peptone, 2% dextrose), lethality was measured by inability of colony formation on YPD agar plates. […] The used concentration of 50-100 μg/ml results in 80% survival after 1 h incubation.
(§3) In summary, the incubation of logarithmic phase cells of wild-type yeast and a double-strand break repair deficient derivative (rad51) (Amberg, D. C., D. J. Burke, and J. N. Strathern. 2005. Methods in Yeast Genetics: A Cold Spring Harbor Laboratory Course Manual, 2005 Edition. Cold Spring Harbor Laboratory Press, Cold Spring Harbor, N.Y.) with compound NSC109268 had the following effects on sensitivity towards DNA damaging agents, measured as survival of macrocolony forming cells (+increased resistance, −decreased resistance, ND not determined): Table 1 summarizes the effects of NSC109268 on senstivity towards DNA Damaging Agents in repair-proficient wild type and rad 51^− cells.

Data set [3] has as its system double-strand break repair deficient derivative (rad51) yeast. Kind of data set: sensitivity towards DNA damaging agents, survival of macrocolony forming cells, rad51. Further details: key: +: increased resistance; −: decreased resistance. In kind it is cell-based. The settings on record: strain rad51. The protocol: as §2, §3
Data set [4] has as its system yeast cultures. The data set can be described thus: lethality of logarithmically growing yeast cultures, colony formation on YPD agar. Type of data set: cell-based. The protocol:
as §2
Curiously, the opposite effect was found for other agents such hydrogen peroxide (H2O2), an oxidative agent causing base damage and strand breaks.

Data set [5] deals with PC3 prostate adenocarcinoma cells. The data set can be described thus: MTS cell survival, cisplatin plus NSC109268. Type of data set: cell-based, human. The protocol: as §1
Data set [6] concerns cisplatin sensitive ovarian cancer cells (2008). The data set can be described thus: MTS cell survival, cisplatin plus NSC109268. In kind it is cell-based, human. The settings on record: cisplatin 0-100 μM, NSC109268 0-3 μM, 48 h. The protocol:
Based on the cisplatin result in yeast, the inventors explored if a similar effect can be detected in human cells. […] Survival was determined in the presence or absence of compound NSC109268 using Cell Titer 96 Aqueous Cell Proliferation Assay kit from Promega, Madison, Wis. All cultures, unless specified otherwise, were maintained in growth medium composed of RPMI with 2 mM L-glutamine, 100 units/ml of Penicillin, and 100 μg/ml Streptomycin, supplemented with 10% fetal bovine serum under a humidified atmosphere of 95% air, 5% CO2 at 37° C.
Briefly, cells were plated in 96-well tissue culture plates at 5-8×10^3 cells/well and allowed to attach overnight in growth medium. The following day, cells were rinsed twice in DMEM and further incubated in serum-free medium for 24 h. Cells were then treated with cisplatin [0-100 μM] in the presence of NSC109268 [0, 1, 2, 3 μM] for 48 h. […]
To determine the number of surviving cells, cells were incubated in 333 μg/ml MTS [3-(4,5-dimethylthiazol-2-yl)-5-(3-carboxymethoxyphenyl)-2-(4-sulfophenyl)-2H-tetrazolium], a tetrazolium salt, and 25 μM phenazine methosulfate (PMS), an electron coupling reagent. […] The amount of formazan product measured in terms of absorbances is directly proportional to the number of live cells in the cultures. Thus, absorbance readings at 490 nm were taken after 1 h and converted to cell numbers based on standard curves. […]

Data set [7] deals with yeast cultures. The data set can be described thus: lethality of logarithmically growing yeast cultures, colony formation on YPD agar. Type of data set: cell-based. This is another data set of the same source.
[8] abbreviates: cisplatin 0-100 μM, NSC109268 0-3 μM, 48 h.
The mark [9] stands for this setting: compared to cisplatin-sensitive cells (2008).

Turning to `N.N.[Cl][Pt][Cl]` [Cisplatin, cis-Diammineplatinum (II) dichloride, reference compound], the “cell survival (fraction of colony forming cells)” value was found to be 71% with WT strain BY4741 (33 μM Cisplatin alone), 44.5% in the data set with WT strain BY4741 (82.5 μM Cisplatin alone) and 21% with WT strain BY4741 (165 μM Cisplatin alone). Moreover, the survival in [1] (5 μM of cisplatin without any added NSC109268, 48 h) was found to be 85%.
On to “Copper, di-μ-chlorobis[1-[(1-piperidinyl-κN)methyl]-2-naphthalenolato-κO]di-(9CI) [NSC109268]”, for which, in data set [2], the “effect on checkpoint activation” value is recorded as “interfere with checkpoint activation”. The “effect on sensitivity towards DNA damaging agent” value in the data set on wild-type yeast (Cisplatin) is “−”; with wild-type yeast (MNNG) it was “+”; with wild-type yeast (Streptonigrin) it was “+”; in [3] (Cisplatin), “−”; in data set [3] (Ionizing radiation (137Cs)) it was “+”; in data set [3] (Phleomycin), “+”. Also, the survival in the data set on yeast cultures [4] (compound itself, 50-100 μg/ml, 1 h incubation) amounted to 80%; in data set [1] (2 μM NSC109268 without any cisplatin, 48 h), 38%. For the same molecule, the “effect on sensitivity to DNA damaging agent” value with yeast cultures [4] (hydrogen peroxide (H2O2), simultaneous exposure) was “sensitivity is enhanced”; in the data set with yeast cultures [7] (alkylating agent (MMS)), “does not seem to affect sensitivity”; in the data set on yeast cultures [7] (phleomycin), “does not seem to affect sensitivity”; in the data set with yeast cultures [7] (ultraviolet radiation (UV-C)) it was “does not seem to affect sensitivity”. In addition, the “effect on lethality of DNA damaging agent” value is reported as “protective effect” in the data set on yeast cultures [4] (streptonigrin, 1 h at 30° C. in YPD medium) and “less significantly” in the data set on yeast cultures [7] (ionizing radiation (137Cs γ-radiation)). Moreover, the “toxicity of the compound itself” value in the data set with yeast cultures [4] (yeast, 1 h at 30° C. in YPD medium) is listed as “moderate toxicity”. Moreover, the “cell survival (fraction of colony forming cells)” value is on record as 29% in the data set with WT strain BY4741 (NSC109268 7.4 nM + 33 μM Cisplatin); 25.5% in the data set on WT strain BY4741 (NSC109268 7.4 nM + 82.5 μM Cisplatin); 0.09% with WT strain BY4741 (NSC109268 7.4 nM + 165 μM Cisplatin); 79.5% in the data set on WT strain BY4741 (NSC109268 7.4 nM, 0 μM Cisplatin); less than 0.4% in the data set on WT strain BY4741 (NSC109268 37 nM + 165 μM Cisplatin); 10% in the data set with WT strain BY4741 (NSC109268 37 nM, 0 μM Cisplatin). In addition, the “effect of combination with cisplatin on survival” value was “synergistically enhanced; also recorded: increases cellular sensitivity to cisplatin” in data set [5] (setting [8]), “synergistically enhanced” in data set [1] (setting [8]) and “synergistically enhanced” in data set [6]. Further, the “toxicity of NSC109268 alone” value in [5] (range of concentrations that increases sensitivity to cisplatin) was “(virtually) non-toxic”. The measured survival in data set [1] (5 μM cisplatin/2 μM combination treatment, 48 h) was found to be 4.5%. In data set [1] (5 μM cisplatin/2 μM combination treatment, 85% of 38%), the “survival expected if the effects were independent” value worked out at 32%. Further, the “enhancement effect on cisplatin” value in [1] (setting [9]) is “much more pronounced”. In data set [1] (setting [9]), the “toxicity without added cisplatin” value is given as “much more toxic”.
“Copper, di-μ-chlorobis[1-[(4-morpholinyl-κN4)methyl]-2-naphthalenolato-κO]di-(9CI) [NSC109272]”: the “cell survival (fraction of colony forming cells)” value in the data set on WT strain BY4741 (NSC109272 1.5 nM + 165 μM Cisplatin) came out at 4%; in the data set on WT strain BY4741 (NSC109272 1.5 nM, 0 μM Cisplatin) it was 70%.

Values taken from patent publication US20080085882A1, “Compositions and Methods for Potentiation of Cancer Agents” (priority 2006, published 2008).
